{"source": "patent US7842677B2", "about": "“Synthetic ganglioside derivatives and compositions thereof” (Seneb Biosciences, Inc., priority 2001, dated 2010)", "origin": "cited, not measured here", "system": "murine neuroblastoma cells"}
{"substance": "ganglioside GM3", "values": [{"measurement": "growth of neuroblastoma cells (in words)", "result": "inhibit the growth"}]}
